According to patent US12115154B2, “Compounds for the modulation of proprotein convertase subtilisin/kexin type 9 (PCSK9)” (SRX Cardio, LLC, priority 2020, dated 2024):

Assays:
PCSK9 = molecular target: T1, PCSK9 (Homo sapiens, UniProt Q8NBP7); assay: Biodesy Direct Binding Measurement (second harmonic generation); settings: Biodesy Delta System
T1 construct: purchased Cayman Chemical 20631; host or cells: added to HepG2, HuH7, FL83B or shPCSK9 knock-down lines
Description: The compounds of the present disclosure may be tested for binding to, inhibition of, and/or modulation of PCSK9 activity according to the following protocols.
Direct binding can be measured using the commercially available Biodesy Delta System (BDS, http://www.biodesy.com/products/; accessed Aug. 1, 2018). The BDS is a laser-based approach that utilizes second harmonic generation from a labeled protein to detect ligand binding, the method of which is covered and described by U.S. Pat. Nos. 9,395,358 and 8,932,822, and has been commercialized by Biodesy Inc. (South San Francisco, Calif.).

[1] = Dissolution in dosing solution; format: physicochemical; settings: 1% Tween-80 aqueous solution, 10-15 minutes sonication
Procedure: (§1) A representative compound (Compound 1041) was tested for oral bioavailability and efficacy in mice. Male C57BL/6 mice were purchased from Taconic Biosciences (Rensselaer, New York) and housed under standard conditions with the exception of being provided a high fat diet (#TD.90221, Envigo, Madison, Wis.) and water ad libitum. Following 4 weeks of diet acclimation the animals were then dosed with compound or vehicle as control specimens. Compound readily dissolved at 1.5 mg/ml in a 1% Tween-80 aqueous solution with 10-15 minutes sonication. This solution was used at the 1.5 mg/ml concentration for oral (PO) dosing or further diluted with sterile saline for intravenous (IV) dosing.

Male C57BL/6 mice [2] = assay: Liver panel (animal health) in high fat diet mice; format: in vivo
Procedure: as §1
To assess animal health following compound exposure, a liver panel (Test Code #60405) was tested by IDEXX BioAnalytics (North Grafton, Mass.). […] Also of note, AST and ALT levels in the liver panel were elevated in the PO vehicle, which is attributed to the high fat diet used in the study (Envigo, #TD.90221).

Male C57BL/6 mice [3] = assay: In vivo efficacy: serum LDL in high fat diet mice; settings: for reduction in LDL: daily PO 15 mg/kg
Procedure: as §1
[…] Plasma samples were collected at 0.25, […], 1, 2, 3, 6, 8, 24, and 48 hours while liver specimens were collected at 8, 24, and 48 hours and drug concentration were measured by LC-MS/MS per standard protocols.
Serum lipid levels were measured using commercially available veterinary health testing services provided by IDEXX BioAnalytics (North Grafton, Mass.). Blood specimens were collected from the animals and the resulting serum was frozen and stored at −80° C. until analysis. Specimens were measured using the commercial service's standard procedures for the Rodent Lipid Panel (Test Code #6290).

[4] = In vivo PK in mice (IV and PO); settings: male, C57BL/6, mouse, plasma, 3 mg/kg IV versus 15 mg/kg PO, read-out: oral bioavailability (F %)
Procedure: as §1
Test animals received a single dose at 3 mg/kg by IV or 15 mg/kg by PO while control animals received an equal volume of vehicle control by IV or PO, respectively. Plasma samples were collected at 0.25, […], 1, 2, 3, 6, 8, 24, and 48 hours while liver specimens were collected at 8, 24, and 48 hours and drug concentration were measured by LC-MS/MS per standard protocols.
In brief, blood was immediately centrifuged, and the resulting plasma was frozen and stored at −80° C. until analysis. […] Compound concentrations were determined by a liquid chromatography-mass tandem spectrometry (LC-MS/MS) per routine method (Quintana Discovery, Hayward, Calif.) following the standard protocol. […]

[5] = daily 15 mg/kg PO, 72-hour group, versus vehicle control

T1 sequence (Q8NBP7 153-692): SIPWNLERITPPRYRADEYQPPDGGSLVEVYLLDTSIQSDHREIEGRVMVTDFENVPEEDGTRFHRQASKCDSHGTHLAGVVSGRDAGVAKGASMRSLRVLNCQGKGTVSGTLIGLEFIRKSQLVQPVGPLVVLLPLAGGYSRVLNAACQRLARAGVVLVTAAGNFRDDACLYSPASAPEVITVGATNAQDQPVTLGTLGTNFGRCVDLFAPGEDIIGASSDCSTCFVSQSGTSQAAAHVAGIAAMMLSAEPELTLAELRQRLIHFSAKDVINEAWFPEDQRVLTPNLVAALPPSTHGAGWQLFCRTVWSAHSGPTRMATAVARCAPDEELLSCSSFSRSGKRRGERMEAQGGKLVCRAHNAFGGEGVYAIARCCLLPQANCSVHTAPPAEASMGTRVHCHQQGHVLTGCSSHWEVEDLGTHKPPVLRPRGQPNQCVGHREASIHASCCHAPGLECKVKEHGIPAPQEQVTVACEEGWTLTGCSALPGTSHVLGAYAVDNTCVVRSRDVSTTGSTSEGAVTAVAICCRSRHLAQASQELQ

Row | ASHG (PCSK9) | SMILES | concentration readily dissolved [1] | reduction in ALT levels (Male C57BL/6 mice [2]; [5]) | reduction in AST levels (Male C57BL/6 mice [2]; [5]) | liver panel toxicity (Male C57BL/6 mice [2]; three daily 15 mg/kg PO doses, 72 hours, versus PO vehicle) | reduction in LDL (Male C57BL/6 mice [3]; at 48 hours (dosed at t=0 and t=24 hours)) | reduction in LDL (Male C57BL/6 mice [3]; at 72 hours (dosed at t=0, t=24, t=48 hours)) | reduction in LDL relative to IV vehicle control group (Male C57BL/6 mice [3]; single 3 mg/kg IV dose, 48 hours after dosing) | reduction in LDL relative to PO vehicle control group (Male C57BL/6 mice [3]; single 15 mg/kg PO dose, 48 hours after dosing) | bioavailability [4]
1 | > 10% | Fc1ccc(-c2ccc(C3CCCN(CC4CC4)C3)cc2)cc1 (stereo not shown) [Compound 1.001, 1-(cyclopropylmethyl)-3-(4′-fluoro-[1,1′-biphenyl]-4-yl)piperidine] | – | – | – | – | – | – | – | – | –
2 | – | Cc1cc(-c2ccc(F)cc2)ccc1C1CCCN(C2CCCC2)C1 (stereo not shown) [Compound 1.041, 1-cyclopentyl-3-(4′-fluoro-3-methyl-[1,1′-biphenyl]-4-yl)piperidine] | ≥ 1500 µg/mL | 77.7% | 72.1% | no overt toxicity | 32% | 50% | 19% | 32% | 44%
